Reference: patent US20130053430A1, “MODULATION OF CETP EXPRESSION” (Isis Pharmaceuticals, Inc., priority 2010, published 2013)
Strand notation (5' to 3'): a small letter for the sugar, then the base; units joined by * are phosphorothioate-linked, units joined directly phosphodiester-linked; [ ] holds rarer units or linkages, { } end groups; capitals alone tell only the bases. e = 2'-O-(2-methoxyethyl) (MOE); [5mC] = 5-methylcytosine; d = 2'-deoxy (DNA)

What was measured:
human CETP mRNA [1] = assay: Antisense inhibition of human CETP mRNA in SW872 liposarcoma cells (Example 1); type: cell-based; conditions: 150 nM antisense oligonucleotide, lipofectin, ~24 hours, relative to untreated control cells
Protocol: Antisense oligonucleotides targeted to a CETP nucleic acid were tested for their effect on CETP mRNA transcript in vitro. Cultured SW872 liposarcoma cells at a density of 50,000 cells per well in a 24-well plate were transfected using lipofectin reagent with 150 nM antisense oligonucleotide. After approximately 24 hours, RNA was isolated from the cells and CETP mRNA levels were measured by quantitative real-time PCR. A human primer probe set (forward sequence […], designated herein as SEQ ID NO: 38; reverse sequence GGCTCACGCCTTTGCTGTT, designated herein as SEQ ID NO: 39; probe sequence […], designated herein as SEQ ID NO: 40) was used to quantitate CETP mRNA. CETP mRNA transcript levels were adjusted according to total RNA content, as measured by the house-keeping gene, GAPDH mRNA levels. GAPDH was measured using a primer probe set with the sequence as set forth in SEQ ID NOs: 10, 11, 13. Results are presented as percent inhibition of CETP, relative to untreated control cells.
The antisense oligonucleotides in Table 3 are 5-10-5 gapmers, where the gap segment comprises ten 2′-deoxynucleosides and each wing segment comprises five 2′-MOE nucleosides. Each nucleotide in the 5′ wing segment and each nucleotide in the 3′ wing segment has a 2′-MOE modification. The internucleoside linkages throughout each gapmer are phosphorothioate (P═S) linkages. All cytosine residues throughout each gapmer are 5-methylcytosines. ‘Target start site’ indicates the 5′-most nucleotide to which the antisense oligonucleotide is targeted. ‘Target stop site’ indicates the 3′-most nucleotide to which the antisense oligonucleotide is targeted. All the antisense oligonucleotides listed in Table 3 target human CETP mRNA, designated herein as SEQ ID NO: 1 (GENBANK Accession No. M30185.1).

human CETP mRNA [2] = assay: Dose-dependent antisense inhibition of human CETP in SW872 liposarcoma cells (Example 2); type: cell-based; conditions: Lipofectin, ~16 hours (Example 2)
Protocol: Cells were plated at a density of 50,000 cells per well in a 24-well plate and transfected using Lipofectin reagent with 50 nM, 150 nM, and 300 nM concentrations of each antisense oligonucleotide. After approximately 16 hours, RNA was isolated from the cells and CETP mRNA levels were measured by quantitative real-time PCR. CETP mRNA levels were normalized to total RNA content, as measured by the house-keeping gene, GAPDH mRNA levels. Results are presented in Table 4 as percent inhibition of CETP, relative to untreated control cells.

human CETP mRNA [3] = assay: Antisense inhibition of human CETP mRNA in primary hepatocytes from huCETP transgenic mice (Example 4); type: cell-based, mouse; conditions: cytofectin, ~24 hours
Protocol: Transgenic mice expressing human CETP, controlled by its natural flanking region, increase expression of this gene in response to hypercholesterolemia (Jiang, X. C. et al., J. Clin. Invest. 1992. 90: 1290-1295). These mice were utilized for the following studies. Antisense oligonucleotides targeted to a CETP nucleic acid and described in Example 1 were tested for their effect on CETP mRNA transcript in vitro. Cultured primary hepatocytes from huCETP transgenic mice, at a density of 17,500 cells per well in a 96-well plate, were transfected using cytofectin reagent with 100 nM or 200 nM antisense oligonucleotide. After approximately 24 hours, RNA was isolated from the cells and CETP mRNA levels were measured by quantitative real-time PCR. CETP mRNA transcript levels were adjusted according to total RNA content, as measured by the house-keeping gene, GAPDH mRNA levels. Results are presented in Table 6 as percent inhibition of CETP, relative to untreated control cells.

Substance | % inhibition (human CETP mRNA [1]) [%] | percent inhibition of CETP (human CETP mRNA [2]; 50 nM) [%] | percent inhibition of CETP (human CETP mRNA [2]; 150 nM) [%] | percent inhibition of CETP (human CETP mRNA [2]; 300 nM) [%] | Percent inhibition of human CETP mRNA (human CETP mRNA [3]; 100 nM) [%] | Percent inhibition of human CETP mRNA (human CETP mRNA [3]; 200 nM) [%]
ISIS 349461: 5-10-5 MOE gapmer ATACTTGACTTGGCCAAGGA (eA*eT*eA*e[5mC]*eT*dT*dG*dA*d[5mC]*dT*dT*dG*dG*d[5mC]*d[5mC]*eA*eA*eG*eG*eA) | 97 | 75 | 80 | 88 | 65 | 52
ISIS 349465: 5-10-5 MOE gapmer GAGACATCAATGGACTTGGC (eG*eA*eG*eA*e[5mC]*dA*dT*d[5mC]*dA*dA*dT*dG*dG*dA*d[5mC]*eT*eT*eG*eG*e[5mC]) | 87 | 96 | 87 | 96 | 50 | 66
ISIS 349483: 5-10-5 MOE gapmer CTCTGAGACATTCTTGTAGA (e[5mC]*eT*e[5mC]*eT*eG*dA*dG*dA*d[5mC]*dA*dT*dT*d[5mC]*dT*dT*eG*eT*eA*eG*eA) | 85 | 100 | 98 | 85 | 77 | 63
ISIS 349490: 5-10-5 MOE gapmer CCTCTTGGAAGATTTCCTGG (e[5mC]*e[5mC]*eT*e[5mC]*eT*dT*dG*dG*dA*dA*dG*dA*dT*dT*dT*e[5mC]*e[5mC]*eT*eG*eG) | 89 | 97 | 93 | 88 | 36 | 80
ISIS 349495: 5-10-5 MOE gapmer AGGAATTTCACCATCACTGA (eA*eG*eG*eA*eA*dT*dT*dT*d[5mC]*dA*d[5mC]*d[5mC]*dA*dT*d[5mC]*eA*e[5mC]*eT*eG*eA) | 58 |  |  |  | 61 | 74
ISIS 349496: 5-10-5 MOE gapmer ACAGAATGTTGCTGGTCTGG (eA*e[5mC]*eA*eG*eA*dA*dT*dG*dT*dT*dG*d[5mC]*dT*dG*dG*eT*e[5mC]*eT*eG*eG) | 69 |  |  |  | 57 | 87
ISIS 349497: 5-10-5 MOE gapmer CCTCTTCAAATGTGTAAGCT (e[5mC]*e[5mC]*eT*e[5mC]*eT*dT*d[5mC]*dA*dA*dA*dT*dG*dT*dG*dT*eA*eA*eG*e[5mC]*eT) | 78 |  |  |  | 71 | 79
ISIS 349498: 5-10-5 MOE gapmer CTGGACGGTAGTCACGATAT (e[5mC]*eT*eG*eG*eA*d[5mC]*dG*dG*dT*dA*dG*dT*d[5mC]*dA*d[5mC]*eG*eA*eT*eA*eT) | 80 |  |  |  | 76 | 84
ISIS 349499: 5-10-5 MOE gapmer CCAAGAGGCTTAAGAAGAGC (e[5mC]*e[5mC]*eA*eA*eG*dA*dG*dG*d[5mC]*dT*dT*dA*dA*dG*dA*eA*eG*eA*eG*e[5mC]) | 55 |  |  |  | 80 | 80
ISIS 349500: 5-10-5 MOE gapmer ACAGTCTTTGGTGTAATCTG (eA*e[5mC]*eA*eG*eT*d[5mC]*dT*dT*dT*dG*dG*dT*dG*dT*dA*eA*eT*e[5mC]*eT*eG) | 72 |  |  |  | 41 | 77
ISIS 349501: 5-10-5 MOE gapmer GCTGCTCTCAGTCAAGTTGG (eG*e[5mC]*eT*eG*e[5mC]*dT*d[5mC]*dT*d[5mC]*dA*dG*dT*d[5mC]*dA*dA*eG*eT*eT*eG*eG) | 67 |  |  |  | 54 | 45
ISIS 349502: 5-10-5 MOE gapmer GAAGCTCTGGATGGACTCGG (eG*eA*eA*eG*e[5mC]*dT*d[5mC]*dT*dG*dG*dA*dT*dG*dG*dA*e[5mC]*eT*e[5mC]*eG*eG) | 43 |  |  |  | 49 | 61
ISIS 349503: 5-10-5 MOE gapmer GCGGTGATCATTGACTGCAG (eG*e[5mC]*eG*eG*eT*dG*dA*dT*d[5mC]*dA*dT*dT*dG*dA*d[5mC]*eT*eG*e[5mC]*eA*eG) | 81 |  |  |  | 83 | 89
ISIS 349504: 5-10-5 MOE gapmer TGACCTCAGGGATGCCCACA (eT*eG*eA*e[5mC]*e[5mC]*dT*d[5mC]*dA*dG*dG*dG*dA*dT*dG*d[5mC]*e[5mC]*e[5mC]*eA*e[5mC]*eA) | 45 |  |  |  | 78 | 92
ISIS 349505: 5-10-5 MOE gapmer CACTACCTCGAGCCGAGACA (e[5mC]*eA*e[5mC]*eT*eA*d[5mC]*d[5mC]*dT*d[5mC]*dG*dA*dG*d[5mC]*d[5mC]*dG*eA*eG*eA*e[5mC]*eA) | 55 |  |  |  | 98 | 99
ISIS 349506: 5-10-5 MOE gapmer CGCCTTTGCTGTTCATGAGG (e[5mC]*eG*e[5mC]*e[5mC]*eT*dT*dT*dG*d[5mC]*dT*dG*dT*dT*d[5mC]*dA*eT*eG*eA*eG*eG) | 92 | 93 | 86 | 93 | 95 | 99
ISIS 349507: 5-10-5 MOE gapmer TGATGATGTCGAAGAGGCTC (eT*eG*eA*eT*eG*dA*dT*dG*dT*d[5mC]*dG*dA*dA*dG*dA*eG*eG*e[5mC]*eT*e[5mC]) | 19 |  |  |  | 71 | 73
ISIS 349508: 5-10-5 MOE gapmer TCTCGAGTGATAATCTCAGG (eT*e[5mC]*eT*e[5mC]*eG*dA*dG*dT*dG*dA*dT*dA*dA*dT*d[5mC]*eT*e[5mC]*eA*eG*eG) | 24 |  |  |  | 76 | 86
ISIS 349509: 5-10-5 MOE gapmer CATCTGCAGCAGCAGGAAGC (e[5mC]*eA*eT*e[5mC]*eT*dG*d[5mC]*dA*dG*d[5mC]*dA*dG*d[5mC]*dA*dG*eG*eA*eA*eG*e[5mC]) | 70 |  |  |  | 22 | 83
ISIS 349510: 5-10-5 MOE gapmer TCTAGCTCAAGCTCTGGAGG (eT*e[5mC]*eT*eA*eG*d[5mC]*dT*d[5mC]*dA*dA*dG*d[5mC]*dT*d[5mC]*dT*eG*eG*eA*eG*eG) | 64 |  |  |  | 65 | 88
ISIS 349514: 5-10-5 MOE gapmer ACGCTGGAGGAGACACCAGG (eA*e[5mC]*eG*e[5mC]*eT*dG*dG*dA*dG*dG*dA*dG*dA*d[5mC]*dA*e[5mC]*e[5mC]*eA*eG*eG) | 71 |  |  |  | 84 | 92
ISIS 349516: 5-10-5 MOE gapmer CATCTCCGTACTCCTAACCC (e[5mC]*eA*eT*e[5mC]*eT*d[5mC]*d[5mC]*dG*dT*dA*d[5mC]*dT*d[5mC]*d[5mC]*dT*eA*eA*e[5mC]*e[5mC]*e[5mC]) | 65 |  |  |  | 78 | 86
